# Experiments:
# Assay type in all cases: cell-based
# [1] = test system: Alternaria alternata mixed with Trichoderma viride (AaTv); experiment: Fungal efficacy testing, modified ASTM 5590, paint film (Flumetsulam study); conditions: four weeks; for % inhibition: at the total conc given; for Total conc, ppm: concentration in paint chosen as minimum inhibitory concentration for SI, 30 C
# Procedure: (§1) Sample preparation: A single or blend of biocides was post added into white acrylic latex paint free of biocides to give a maximum total active ingredient/s concentration tested. This paint was then diluted with a biocide free acrylic latex paint to give targeted concentrations for the testing. Depending on the type of biocide blends tested, the total biocides concentrations varies from 200 to 5000 ppm. After biocides addition or dilution, each sample was hand mixed for at least a minute until uniformity is achieved. Each of the paint samples as well as a control sample (containing no biocide) were used to prepare films on black plastic-vinyl chloride/acetate copolymer panels (LENETA, Mahwah, N.J.) using a 3 mil (0.0762 mm) bird bar applicator. The panels were thoroughly dried for at least 2 days avoiding direct exposure to sunlight. Square discs (0.5 inch; 1.27 cm^2) were cut out from each panel and were used as the substrate for fungal and algal efficacy tests. This sample size allowed for an agar border when the sample disc was placed into the well of the test plate. Each sample was tested in duplicate
# (§2) Test conditions: The appropriate media (BOLD'S 3N for Chlorophytes, BG-11 for Cyanobacteria, and PDA for fungi) were used to support microbial growth. The test plates were maintained at room temp (25° C.-26° C.), in a cycled light-dark environment, for four weeks for algae. Plates for fungal challenge tests were maintained at 30 C for four weeks. At the end of the incubation period the samples were scored for percent area covered by visible microbial growth.
# (§3) ASTM 5590 is a standard accelerated test method for determining resistance of various coatings (including paints) to fungal defacement. To accommodate for high-throughput screening, this method was scaled down from petri plates to 6-well plates. To set up the test, an agar plug was placed at the bottom of each well of the sterile 6-well plate. A single coupon was placed with a pair of sterile forceps at the center of the agar plug (on top) with the painted surface facing upwards. Fungal inoculums were prepared by mixing equal concentrations (1×10^6 cfu/ml) and equal volumes (depending on number of samples to be tested) of like growing organisms. For Flumetsulam+various IT synergy study, three pools of mixed fungi were prepared as the test inoculum. Cladosporium herbarum was mixed with Aureobasidium pullulans; Aspergillus niger was mixed with Penicillium funiculosum and Alternaria alternata was mixed with Trichoderma viride. For Diclosulam+various IT synergy study, all above fungi were mixed as a single pool. Each well was inoculated with 400 μl of organism mixture (1×10^6 cfu/ml) making sure that the whole surface (paint film as well as the agar surrounding it) was evenly covered. The plates were incubated at 30° C. in presence of moisture, for a period of four weeks. The total percent area covered was evaluated and recorded at the end of each week after the 2nd week and recorded in increments of 5%.
# (§4) The SI is calculated based on […].
# [2] = test system: Aspergillus niger mixed with Penicillium funiculosum (AnPf); experiment: as above; conditions: four weeks; for % inhibition: at the total conc given; for Total conc, ppm: concentration in paint chosen as minimum inhibitory concentration for SI, 30 C
# Procedure: as §1, §2, §3, §4
# [3] = test system: Cladosporium herbarum mixed with Aureobasidium pullulans (ApCh); experiment: as above; conditions: four weeks; for % inhibition: at the total conc given; for Total conc, ppm: concentration in paint chosen as minimum inhibitory concentration for SI, 30 C
# Procedure: as §1, §2, §3, §4
# [4] = test system: Chlorella sp., Chlorella kessleri, and Nostoc commune (Cs + Ck + Nc); experiment: Algal efficacy testing, modified ASTM 5589, paint film (Flumetsulam study); conditions: four weeks; for % inhibition: at the total conc given; for Total conc, ppm: concentration in paint chosen as minimum inhibitory concentration for SI, 25-26 C
# Procedure: as §1, §2
# (§5) ASTM 5589 is a standard accelerated test method for determining resistance of various coatings (including paints) to algal defacement. To accommodate for high-throughput screening, this method was scaled down from petri plates to 6-well plates. A single coupon was placed with a pair of sterile forceps at the center of the agar plug (on top) with the painted surface facing upwards. Algal inoculums were prepared by mixing equal concentrations (1×10^6 cfu/ml) and equal volumes (depending on number of samples to be inoculated) of like growing organisms.
# (§6) In Flumetsulam+various IT synergy study, three pool of mixed algae were prepared as the test inoculum, Gloeocapsa sp. and Oscillatoria sp. a mix of cyanobacteria grown on BG-11 media; Chlorella sp., Chlorella kessleri, and Nostoc commune are unicellular chlorphytes that were mixed and grown on Bold media; Trentepohlia aurea, Tretepohlia odorata, and Calotrix parientina are filamentous algae that were mixed and grown on Bold media.
# (§7) Each well that contains a tested coupon was inoculated with 400 μl of organism mixture (1×10^6 cfu/ml) making sure that the whole surface (paint film as well as the agar surrounding it) was evenly covered. The plates were incubated at room temp (25° C.-26° C.) with cyclic exposure to light (OTT-Lite model # OTL4012P, 40 Watt, 26KLumen) and dark phases, for a period of four weeks. The total area covered was evaluated at the end of each week according to percent area covered in 5% increments.
# as §4
# [5] = test system: Trentepohlia aurea, Tretepohlia odorata, and Calotrix parientina (Cp + To + Ta); experiment: as above; conditions: four weeks; for % inhibition: at the total conc given; for Total conc, ppm: concentration in paint chosen as minimum inhibitory concentration for SI, 25-26 C
# Procedure: as §1, §2, §5, §6, §7, §4
# [6] = test system: Gloeocapsa sp. and Oscillatoria sp. (Gs + Os); experiment: Algal efficacy testing, modified ASTM 5589, paint film (both studies); conditions: four weeks; for % inhibition: at the total conc given; for Total conc, ppm: concentration in paint chosen as minimum inhibitory concentration for SI
# Procedure: as §1, §2, §5, §6
# (§8) In Diclosulam+various IT synergy study, only two pools of mixed algae were prepared; Gloeocapsa sp. and Oscillatoria sp. grown on BG-11 media and Chlorella sp., Chlorella kessleri, Nostoc commune, Trentepohlia aurea, Tretepohlia odorata, and Calotrix parientina grown on Bold media
# as §7, §4
# [7] = test system: Aa + Tv + An + Pf + Ap + Ch (all fungi mixed as a single pool); experiment: Fungal efficacy testing, modified ASTM 5590, paint film (Diclosulam study, single pool); conditions: four weeks; for Total conc, ppm: Diclosulam:DIMTS study, concentration in paint used for SI, 30 C; for % inhibition: at the total conc given
# Procedure: as §1, §2
# as §3, with “Each well was inoculated with 400 μl of organism mixture (1×10^6 cfu/ml) making sure that the whole surface (paint film as well as the agar surrounding it) was evenly covered. The plates were incubated at 30° C. in presence of moisture, for a period of four weeks.” left out
# as §4
# [8] = test system: Cp + To + Ta + Cs + Ck + Nc (algae grown on Bold media); experiment: Algal efficacy testing, modified ASTM 5589, paint film (Diclosulam study); conditions: four weeks; for Total conc, ppm: Diclosulam:DIMTS study, concentration in paint used for SI; for % inhibition: at the total conc given
# Procedure: as §1, §2, §5, §8
# Each well that contains a tested coupon was inoculated with 400 μl of organism mixture (1×10^6 cfu/ml) making sure that the whole surface (paint film as well as the agar surrounding it) was evenly covered. […] The total area covered was evaluated at the end of each week according to percent area covered in 5% increments.
# as §4
Structure (SMILES),% inhibition [1],"Total conc, ppm [1]",% inhibition [2],"Total conc, ppm [2]",% inhibition [3],"Total conc, ppm [3]",% inhibition [4],"Total conc, ppm [4]",% inhibition [5],"Total conc, ppm [5]",% inhibition ([6]; Flumetsulam:DIMTS study),"Total conc, ppm ([6]; Flumetsulam:DIMTS study)",% inhibition ([6]; Diclosulam:DIMTS study),"Total conc, ppm ([6]; Diclosulam:DIMTS study)","Total conc, ppm [7]",% inhibition [7],"Total conc, ppm [8]",% inhibition [8]
"Cc1ccn2nc(S(=O)(=O)Nc3c(F)cccc3F)nc2n1 [Flumetsulam, N-(2,6-difluorophenyl)-5-methyl[1,2,4]triazolo[1,5-a]pyrimidine-2-sulfonamide]",70%,3500 ppm,40%,3500 ppm,70%,3500 ppm,0%,3500 ppm,95%,3500 ppm,80%,2625 ppm,,,,,,
"Cc1ccc(S(=O)(=O)C(I)I)cc1 [DIMTS, diiodomethyl-p-tolylsulfone]",70%,2500 ppm,100%,625 ppm,100%,625 ppm,100%,1250 ppm,100%,1250 ppm,85%,625 ppm,85%,2500 ppm,2500 ppm,0%,625 ppm,100%
"CCOc1nc(F)cc2nc(S(=O)(=O)Nc3c(Cl)cccc3Cl)nn12 [Diclosulam, N-(2,6-dichlorophenyl)-5-ethoxy-7-fluoro[1,2,4]triazolo[1,5-c]pyrimidine-2-sulfonamide]",,,,,,,,,,,,,85%,875 ppm,3500 ppm,0%,437.5 ppm,100%

# Source: patent US8722689B2, “Synergistic combination of flumetsulam or diclosulam with diiodomethyl-P-tolylsulfone” (Dow Global Technologies LLC, priority 2010, dated 2014)
